The test system of the test is synovial tissue collagenolytic activity. Nature of the test: Collagenolytic activity in extracts of synovial tissue from patients with rheumatoid arthritis. Type of test: in vivo, human. The arrangement: Synovial Tissue Collagenolytic Activity (% C^14-collagen degraded) After Minocycline Treatment / % Reduction by Treatment: concentration or dose not given beside the values. The protocol:
In each of three patients, the diseased joint tissue on one side was surgically removed for therapeutic reasons. The three patients were then administered minocycline orally for 10 days and the diseased joint (synovial) tissue on the opposite side was surgically removed (for therapeutic reasons) after the course of minocycline treatment was completed. The tissues were coded, stored frozen, and analyzed double blind to eliminate any bias in the development of the data. The tissues were dried, the lipid removed, and the collagenolytic activity in the diseased joint tissues extracted and concentrated. Aliquots of the extract from each diseased joint were incubated in vitro with radiolabelled collagen fibrils for 72 hours at 37° C. to assess collagen destructive (collagenolytic) enzyme activity.

For the compound `CN(C)c1ccc(O)c2c1C[C@H]1C[C@H]3[C@H](N(C)C)C(O)=C(C(N)=O)C(=O)[C@@]3(O)C(O)=C1C2=O` [minocycline, Minocycline], the “% Reduction by Treatment” value is recorded as 81.8% (Patient #1); 68.8% (Patient #2); “did not reduce collagenolytic activity much further” (Patient #3); 3.3% (Patient #3, listed as Minocycline). The “Synovial Tissue Collagenolytic Activity (% C^14-collagen degraded) After Minocycline Treatment” value (Patient #1, oral for 10 days, before treatment 43.0) is reported as 7.8%; the “Synovial Tissue Collagenolytic Activity (% C^14-collagen degraded) After Minocycline Treatment” value (Patient #2, oral for 10 days, before treatment 41.0) is given as 12.8%; the “Synovial Tissue Collagenolytic Activity (% C^14-collagen degraded) After Minocycline Treatment” value (Patient #3, oral for 10 days, before treatment 18.6) turned out to be 18.0%. Moreover, the “reduction of synovial collagenolytic enzyme activity” value (patients #1 and 2 (high level of activity)) is given as 69-82%.
